# Source: BindingDB's records for doi:10.1016/j.ejmech.2019.111574 (Chungnam National University, 2019)
# Assay: Inhibition of IL-5 receptor in mouse pro-B Y16 cells assessed as decrease in mIL-5 dependent cell proliferation after 48 hrs in presence of 3 units/ml mIL-5 by WST-1 assay
row,Compound,IC50
1,OCC(NCc1nc2c(OCC3CCCCC3)cccc2[nH]1)c1ccccc1 (configuration not stated),20 µM
2,OCC(CC1CCCCC1)NCc1nc2c(OCC3CCCCC3)cccc2[nH]1 (configuration not stated),5 µM
3,O=c1c(-c2ccc(O[C@@H]3O[C@H](CO)[C@@H](O)[C@H](O)[C@H]3O)cc2)coc2cc(O)cc(O)c12 [Sophoricoside],10.6 µM
4,CCC(CO)NCc1nc2c(OCC3CCCCC3)cccc2[nH]1 (configuration not stated),3.5 µM
5,OCCCNCc1nc2c(OCC3CCCCC3)cccc2[nH]1,28.5 µM
6,CCN(CCO)Cc1nc2c(OCC3CCCCC3)cccc2[nH]1,> 30 µM
7,OCCCCNCc1nc2c(OCC3CCCCC3)cccc2[nH]1,30 µM
8,c1ccc(CNCc2nc3c(OCC4CCCCC4)cccc3[nH]2)cc1,> 30 µM
9,CCCC(CO)NCc1nc2c(OCC3CCCCC3)cccc2[nH]1 (configuration not stated),7.5 µM
10,OCCN(Cc1ccc(Cl)cc1)Cc1nc2c(OCC3CCCCC3)cccc2[nH]1,13 µM
11,COc1ccc(CN(CCO)Cc2nc3c(OCC4CCCCC4)cccc3[nH]2)cc1,19 µM
12,CCCN(CCO)Cc1nc2c(OCC3CCCCC3)cccc2[nH]1,20 µM
13,CC(C)(CO)NCc1nc2c(OCC3CCCCC3)cccc2[nH]1,27.5 µM
14,CCCC1O[C@@H]2C[C@H]3[C@@H]4CCC5=CC(=O)C=C[C@]5(C)[C@H]4[C@@H](O)C[C@]3(C)[C@]2(C(=O)CO)O1 (some centres not stated) [BUDESONIDE],26.2 µM
15,OCCN(Cc1ccccc1)Cc1nc2c(OCC3CCCCC3)cccc2[nH]1,25 µM
16,OCCN(Cc1nc2c(OCC3CCCCC3)cccc2[nH]1)C1CCCCC1,> 30 µM
17,OCCN(Cc1ccncc1)Cc1nc2c(OCC3CCCCC3)cccc2[nH]1,> 30 µM
18,CN(CCO)Cc1nc2c(OCC3CCCCC3)cccc2[nH]1,> 30 µM
19,c1ccc(NCc2nc3c(OCC4CCCCC4)cccc3[nH]2)cc1,> 30 µM
20,OCCC(NCc1nc2c(OCC3CCCCC3)cccc2[nH]1)c1ccccc1 (configuration not stated),22 µM
21,OCCNCc1nc2c(OCC3CCCCC3)cccc2[nH]1,20 µM
22,COc1ccc(NCc2nc3c(OCC4CCCCC4)cccc3[nH]2)cc1,> 30 µM
23,OCCCCCNCc1nc2c(OCC3CCCCC3)cccc2[nH]1,> 30 µM
24,COc1ccc(CNCc2nc3c(OCC4CCCCC4)cccc3[nH]2)cc1,> 30 µM
25,CC(C)N(CCO)Cc1nc2c(OCC3CCCCC3)cccc2[nH]1,> 30 µM
26,OCC(Cc1ccccc1)NCc1nc2c(OCC3CCCCC3)cccc2[nH]1 (configuration not stated),12 µM
27,OCCN(Cc1nc2c(OCC3CCCCC3)cccc2[nH]1)CC1CCCCC1,21 µM
